Measured values: paper PMC5146859, “Phase 1/2 study of pacritinib, a next generation JAK2/FLT3 inhibitor, in myelofibrosis or other myeloid malignancies” (Journal of Hematology & Oncology, 2016)

System: patients with advanced myeloid malignancies
Assay: Phase 1 dose escalation: dose-limiting toxicities and MTD
Format: in vivo
Method: Phase 1 was a 3 + 3 dose-escalation study. Three to six patients were enrolled at each dose level, depending upon observed dose-limiting toxicities (DLTs) in the cohort. Each patient participated in only one cohort. Oral pacritinib was administered to the first cohort at 100 mg once daily (QD) for 25 consecutive days in a 28-day cycle in cycle 1, with 3 days of rest for pharmacokinetic (PK) sampling, followed by continuous 28-day dosing for the remaining cycles. Subsequent cohorts received escalating pacritinib dose levels of 150, 200, 300, 400, 500, and 600 mg QD. All patients at each dose level were observed through the end of the first cycle before the next dose level could begin treatment. […]
The primary objective of phase 1 was to establish the MTD of pacritinib in patients with advanced myeloid malignancies, defined as the highest dose level at which no more than one out of six patients in the cohort experienced a DLT during cycle 1 (25 days) of therapy. […] Clinical benefit rate was assessed as an exploratory endpoint, defined as the proportion of patients who experienced a complete response, partial response, clinical improvement, or stable disease (SD) during the study.

For `C1=C/COCc2cc(ccc2OCCN2CCCC2)Nc2nccc(n2)-c2cccc(c2)COC/1` [pacritinib, 11-(2-pyrrolidin-1-yl-ethoxy)-14,19-dioxa-5,7,26-triaza-tetracyclo[19.3.1.1(2,6). 1(8,12)]heptacosa-1(25),2(26),3,5,8,10,12(27),16,21,23-decaene], the “Recommended phase 2 dose” value (human, in vivo) was 400 mg QD and the “Maximum tolerated dose (MTD)” value (phase 1, oral) was 500 mg QD.
